Consider two molecules from ChEMBL document CHEMBL1146396, “(2E,9E)-pyronaamidine 9-(N-methylimine), a new imidazole alkaloid from the northern Mariana islands sponge Leucetta sp. cf. chagosensis” (1997).

Type in all cases: functional
For one assay, the system named is MCF7. Nature of the assay: Cytotoxicity against human MCF7 cells.
A further assay concerns HT-29. The assay is described as follows: Cytotoxicity against human HT-29 cells.
Another assay deals with A549. Nature of the assay: Cytotoxicity against human A549 cells.
For a further assay, the system named is Bacillus subtilis. Nature of the assay: Antimicrobial activity against Bacillus subtilis at 100 ug/disk. The following applies: read-out: IZ.
The next assay has as its system Candida albicans. Nature of the assay: Antimicrobial activity against Candida albicans at 100 ug/disk. The following applies: read-out: IZ.

In brackets after ≈: the same amount, converted by molar mass.

As usually defined, the GI50 is the concentration giving 50% growth inhibition. For `C/N=C1N=C(/N=c2\[nH]c(Cc3ccc(OC)cc3)c(Cc3ccc(OC)c(OC)c3O)n2C)C(=O)N\1C`, the figures for the GI50 in the assay on MCF7, in the assay on HT-29 and in the assay on A549 were 3 µg/mL (≈ 5.92 µM), 6 µg/mL (≈ 11.8 µM) and 6 µg/mL (≈ 11.8 µM), respectively.

Regarding `COc1ccc(Cc2nc(/N=C3\NC(=O)N(C)C3=O)n(C)c2Cc2ccc(OC)c(OC)c2O)cc1` [PYRONAAMIDINE], the zone of inhibition at 100 µg/disc is 10 mm in the assay with Bacillus subtilis and 7 mm with Candida albicans.
